By IC50 is commonly meant the concentration that gives 50% inhibition. For orientation: viability, T/C means the result in the treated group divided by that in the control group, in per cent.

The assay concerns 186277-243-T-J2-PDC multi-cell spheroid viability. Description: Anticancer human tumor 186277-243-T-J2-PDC patient-derived colon adenocarcinoma cell line growth inhibition [PI3K]. The settings on record: for viability, T/C: stronger effect = lower value. Summed up: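 Complex 3D spheroids (cancer cells + endothelial HUVEC + mesenchymal stem cells); drug pairs of targeted agent x inavolisib/alpelisib/duvelisib/copanlisib; half-log series from ~Cmax, max 10 microM if Cmax unknown; endpoint viability.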

The mark [1] stands for this setting: curve of first compound, second compound 0.0316 µM.
Setting [2] is: curve of first compound, second compound 0.1 µM.
The mark [3] stands for this setting: curve of first compound, second compound 0.316 µM.
[4] abbreviates: curve of first compound, second compound 1 µM.
[5] abbreviates: second compound 0.0316 µM, first compound 0.0316 µM.
Setting [6] is: second compound 0.0316 µM, first compound 0.1 µM.
[7] abbreviates: second compound 0.0316 µM, first compound 0.316 µM.
Setting [8] is: second compound 0.0316 µM, first compound 1 µM.
The mark [9] stands for this setting: second compound 0.0316 µM, first compound 3.16 µM.
The mark [10] stands for this setting: second compound 0.0316 µM, first compound 10 µM.
Setting [11] is: second compound 0.1 µM, first compound 0.0316 µM.
The mark [12] stands for this setting: second compound 0.1 µM, first compound 0.1 µM.
Where [13] appears, read: second compound 0.1 µM, first compound 0.316 µM.
Setting [14] is: second compound 0.1 µM, first compound 1 µM.
Setting [15] is: second compound 0.1 µM, first compound 3.16 µM.
Where [16] appears, read: second compound 0.1 µM, first compound 10 µM.
Where [17] appears, read: second compound 0.316 µM, first compound 0.0316 µM.
Setting [18] is: second compound 0.316 µM, first compound 0.1 µM.
[19] abbreviates: second compound 0.316 µM, first compound 0.316 µM.
[20] abbreviates: second compound 0.316 µM, first compound 1 µM.
[21] abbreviates: second compound 0.316 µM, first compound 3.16 µM.
Setting [22] is: second compound 0.316 µM, first compound 10 µM.
Where [23] appears, read: second compound 1 µM, first compound 0.0316 µM.
The mark [24] stands for this setting: second compound 1 µM, first compound 0.1 µM.
The mark [25] stands for this setting: second compound 1 µM, first compound 0.316 µM.
[26] abbreviates: second compound 1 µM, first compound 1 µM.
[27] abbreviates: second compound 1 µM, first compound 3.16 µM.
Where [28] appears, read: second compound 1 µM, first compound 10 µM.
Setting [29] is: curve of first compound, second compound 0.00316 µM.
Setting [30] is: curve of first compound, second compound 0.01 µM.
[31] abbreviates: second compound 0.00316 µM, first compound 0.0316 µM.
Where [32] appears, read: second compound 0.00316 µM, first compound 0.1 µM.
Where [33] appears, read: second compound 0.00316 µM, first compound 0.316 µM.
The mark [34] stands for this setting: second compound 0.00316 µM, first compound 1 µM.
The mark [35] stands for this setting: second compound 0.00316 µM, first compound 3.16 µM.
[36] abbreviates: second compound 0.00316 µM, first compound 10 µM.
[37] abbreviates: second compound 0.01 µM, first compound 0.0316 µM.
[38] abbreviates: second compound 0.01 µM, first compound 0.1 µM.
Setting [39] is: second compound 0.01 µM, first compound 0.316 µM.
Setting [40] is: second compound 0.01 µM, first compound 1 µM.
Setting [41] is: second compound 0.01 µM, first compound 3.16 µM.
Setting [42] is: second compound 0.01 µM, first compound 10 µM.

Values joined by “and” are separate entries in the source; they are usually repeats but may differ in a detail not shown here. Equal values may be shown once.
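Also: spheroids exposed to compounds for seven days before viability reading.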
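For viability, T/C in this document: 100% = DMSO vehicle control viability.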

Take `CC(Cn1ccc(-c2ccc(C#N)c(Cl)c2)n1)NC(=O)c1cc(C(C)O)[nH]n1` (centres undefined) + CC(Nc1ncnc2nc[nH]c12)c1cc2cccc(Cl)c2c(=O)n1-c1ccccc1: the IC50 under setting [1] was more than 10 µM; the IC50 under setting [2] is more than 10 µM; the IC50 under setting [3] is more than 10 µM; the IC50 under setting [4] was more than 10 µM; the IC50 (curve of first compound, second compound 3.16 µM) was more than 10 µM; the IC50 (curve of first compound, second compound 10 µM) is more than 10 µM. The viability, T/C under setting [5] is 91%; the viability, T/C under setting [6] was 109%; the viability, T/C under setting [7] is 101%; the viability, T/C under setting [8] was 90.2%; the viability, T/C under setting [9] is 93.7%; the viability, T/C under setting [10] is 97.9%. Further, the viability, T/C under setting [11] was 98.2%; the viability, T/C under setting [12] was 94.8%; the viability, T/C under setting [13] is 94.9%; the viability, T/C under setting [14] was 103%; the viability, T/C under setting [15] is 101%; the viability, T/C under setting [16] is 88.3%. Moreover, the viability, T/C runs as follows: under setting [17], 92.3%; under setting [18], 104%; under setting [19], 95.7%; under setting [20], 93.1%; under setting [21], 98.5%; under setting [22], 102%. Further, the viability, T/C under setting [23] was 92.7%; the viability, T/C under setting [24] was 108%; the viability, T/C under setting [25] is 114%; the viability, T/C under setting [26] was 92.1%; the viability, T/C under setting [27] was 94.4%; the viability, T/C under setting [28] is 84.1%. Moreover, the viability, T/C runs as follows: (second compound 3.16 µM, first compound 0.0316 µM) 89.6%; (second compound 3.16 µM, first compound 0.1 µM) 102%; (second compound 3.16 µM, first compound 0.316 µM) 116%; (second compound 3.16 µM, first compound 1 µM) 97.3%; (second compound 3.16 µM, first compound 3.16 µM) 106%; (second compound 3.16 µM, first compound 10 µM) 94.5%. In addition, the viability, T/C reads like this: (second compound 10 µM, first compound 0.0316 µM) 98%; (second compound 10 µM, first compound 0.1 µM) 83.4%; (second compound 10 µM, first compound 0.316 µM) 84.3%; (second compound 10 µM, first compound 1 µM) 98.9%; (second compound 10 µM, first compound 3.16 µM) 90.1%; (second compound 10 µM, first compound 10 µM) 78.8%.

Consider `CC(Nc1ccc2c(c1)OCCn1cc(N3C(=O)OCC3C(F)F)nc1-2)C(N)=O` (centres undefined), for which the viability, T/C was 99.1% [middle of 8 runs] (compound 0.00316 µM); 100% [middle of 8 runs] (compound 0.01 µM); 98% [middle of 8 runs] (compound 0.1 µM); 73.4% [middle of 8 runs] (compound 0.316 µM); 50.1% [middle of 8 runs] (compound 1 µM).

Take `C[C@@H](NC(=O)c1ncnc(N)c1Cl)c1ncc(C(=O)Nc2cc(C(F)(F)F)c(Cl)cn2)s1` + CC(Nc1ccc2c(c1)OCCn1cc(N3C(=O)OCC3C(F)F)nc1-2)C(N)=O: the IC50 by setting is: under setting [29], more than 10 µM; under setting [30], more than 10 µM; under setting [1], more than 10 µM; under setting [2], 5.93 µM; under setting [3], 1.85 µM; under setting [4], 0.344 µM. Moreover, the viability, T/C is, setting by setting: under setting [31], 83.2%; under setting [32], 87.1%; under setting [33], 93%; under setting [34], 99.1%; under setting [35], 113%; under setting [36], 75.8%. In addition, the viability, T/C runs as follows: under setting [37], 103%; under setting [38], 101%; under setting [39], 96.2%; under setting [40], 102%; under setting [41], 108%; under setting [42], 72.4%. For the same compound, the viability, T/C runs as follows: under setting [5], 98.6%; under setting [6], 107%; under setting [7], 101%; under setting [8], 104%; under setting [9], 93.7%; under setting [10], 56.1%. For the same compound, the viability, T/C runs as follows: under setting [11], 97.4%; under setting [12], 105%; under setting [13], 96.4%; under setting [14], 108%; under setting [15], 72.8%; under setting [16], 31.1%. Moreover, the viability, T/C reads like this: under setting [17], 85.9%; under setting [18], 92.4%; under setting [19], 87.3%; under setting [20], 67.5%; under setting [21], 34.4%; under setting [22], 12.8%. In addition, the viability, T/C is 56.2% under setting [23]; 54.4% under setting [24]; 51.4% under setting [25]; 35.8% under setting [26]; 13.7% under setting [27]; 4.09% under setting [28].

Consider `CNC(=O)c1ccc(N2C(=S)N(c3ccc(C#N)c(C(F)(F)F)c3)C(=O)C2(C)C)cc1F`, for which the viability, T/C by setting is: (compound 0.0316 µM) 100% [middle of 4 runs]; (compound 0.1 µM) 93.1% [middle of 4 runs]; (compound 0.316 µM) 100% [middle of 4 runs]; (compound 1 µM) 93% [middle of 4 runs]; (compound 3.16 µM) 101% and 104% (2×) and 94.4%; (compound 10 µM) 104% [middle of 4 runs]. Further, the IC50 (curve of compound) is more than 10 µM.

With `C#Cc1c(F)ccc2cc(O)cc(-c3ncc4c(N5CC6CCC(C5)N6)nc(OCC56CCCN5CC(F)C6)nc4c3F)c12` (centres undefined) + CC(Nc1ccc2c(c1)OCCn1cc(N3C(=O)OCC3C(F)F)nc1-2)C(N)=O, the IC50 reads like this: under setting [29], 0.0603 µM; under setting [30], 0.0589 µM; under setting [1], less than 0.0316 µM; under setting [2], less than 0.0316 µM; under setting [3], less than 0.0316 µM; under setting [4], less than 0.0316 µM. The viability, T/C is 73.4% under setting [31]; 31.6% under setting [32]; 16.4% under setting [33]; 16.3% under setting [34]; 12.6% under setting [35]; 8.99% under setting [36]. Further, the viability, T/C was 72.2% under setting [37]; 31.1% under setting [38]; 15.8% under setting [39]; 11.8% under setting [40]; 14% under setting [41]; 9.85% under setting [42]. For the same compound, the viability, T/C under setting [5] was 48.9%; the viability, T/C under setting [6] was 23.6%; the viability, T/C under setting [7] is 13.1%; the viability, T/C under setting [8] was 14.6%; the viability, T/C under setting [9] is 7.53%; the viability, T/C under setting [10] was 7.66%. Besides, the viability, T/C reads like this: under setting [11], 24.8%; under setting [12], 9.05%; under setting [13], 12.4%; under setting [14], 7.52%; under setting [15], 6.59%; under setting [16], 4.7%. Moreover, the viability, T/C under setting [17] was 10.9%; the viability, T/C under setting [18] is 7.34%; the viability, T/C under setting [19] is 4.32%; the viability, T/C under setting [20] is 4.02%; the viability, T/C under setting [21] was 4.87%; the viability, T/C under setting [22] is 2.61%. For the same compound, the viability, T/C by setting is: under setting [23], 15.1%; under setting [24], 8.27%; under setting [25], 6.04%; under setting [26], 3.18%; under setting [27], 3.45%; under setting [28], 1.57%.

Regarding `CC(C)n1nc(-c2ccc3oc(N)nc3c2)c2c(N)ncnc21`, the viability, T/C reads like this: (compound 0.000316 µM) 98% [middle of 4 runs]; (compound 0.001 µM) 96.1% [middle of 4 runs]; (compound 0.00316 µM) 99.7% [middle of 4 runs]; (compound 0.0316 µM) 78.8% [middle of 4 runs]; (compound 0.1 µM) 29.6% and 31.3% (2×) and 27.9%. The IC50 (curve of compound) is 63.7 nM [middle of 4 runs].

These data come from PubChem BioAssay AID1963983 (Molecular Pharmacology Branch, DTP, NCI, 2024).
